From BindingDB's records for doi:10.1021/acsmedchemlett.1c00211 (Biogen, 2021) come the findings set out here.

For experiment [1], the target named is Autotaxin (ENPP2) (Homo sapiens) (UniProt Q13822). The experiment can be described thus: Inhibition of LPA in human plasma after 18 hrs by LC-MS/MS analysis.
In experiment [2] the target is Autotaxin (ENPP2) (Rattus norvegicus) (UniProt Q64610). The experiment can be described thus: Inhibition of LPA in rat plasma after 18 hrs by LC-MS/MS analysis.

For orientation: pIC50 means the IC50 on a negative log10 scale, so that one unit is a factor of ten. Higher therefore signals a low IC50.

pIC50: −log10 of the molar value.

For `C[C@@H](c1ccc2ccc(O[C@H]3CC[C@@H](C(F)(F)F)CC3)c(C(F)(F)F)c2c1)N1C2CCC1CC(C(=O)O)C2` (some centres not stated), the pIC50 is 7.28 in experiment [1] and 7.33 in experiment [2].
